Assay results from US12213479B2, “Monoterpenoid/phenylpropanoid-containing compounds and methods of their making and use as herbicides” (KITTRICH CORPORATION, priority 2016, dated 2025).
Entries after “also recorded” stand apart in the source; their conditions may differ.

Columns and labels:
Wood sorrel = experiment: Foliar spray, wood sorrel; type: in vivo; details: 20 sprays of 1%, observed 2 days after exposure and later
Method: Wood sorrel on the ground of the greenhouse was also treated with active ingredient in order to better assess the effects of foliar treatments on multiple plant species. A patch of wood sorrel was (approximately 4′×3′) was treated with 20 sprays (mist setting) from a MAINStays ironing spray bottle. Effects of the spray were recorded 2 days after exposure.

[1] = system: Waterhemp (Amaranthus tuberculatus); experiment: Toxicity assay (probit LC50), waterhemp; type: in vivo
Source text: (§1) Waterhemp seeds were obtained from the Department of Agronomy at Iowa State University. Individual seeds were sown for each pot (1.5″ wide×3″ deep) with approximately 7.5 g of soil for each plot. Five seeds/plot was sown into numerous plots. After one month of germination, germinated plants were counted in each plot and this number was used for the total number of plants challenged per plot in the toxicity assessment.
(§2) The total number of plants were counted in each plot in 24×6 hexagonal small plot planter tray. The number of germinated seeds in each plot was enumerated after one month, and for each plot this number was recorded and used as the total for each plot. Differing concentrations of thymyloxyacetic acid was applied in 5% Triton-X 100 and 1:1 molar ratio potassium hydroxide:thymyloxyacetic acid to aid in the solubility of the compound in water. Ten mL of solution was applied to each plot, and the mortality of the plants was assessed at 3 days and 2 weeks post application (for some treatments). Mortality at these time points were enumerated out of the total plants germinated in each plot at the beginning of the assay. At both time points, the total number of dead plants and total number of plants at the beginning of the assay were recorded for each observation. A Probit model was used to calculate the LC50 values for each of the compounds explored in this assay. A formulation control (with no active ingredient) was screened against a number of plants and factored into the final probit model. This formulation control had little-to-no effect by itself.

[2] = system: Cocklebur (Xanthium spp.); experiment: Toxicity assay (probit LC50), cocklebur; type: in vivo
Source text: as §1, with “Cocklebur burs” for “Waterhemp seeds”, “One bur/plot” for “Five seeds/plot”
as §2

[3] = system: Palmer Amaranth (Amaranthus palmeri); experiment: Toxicity assay (probit LC50), Palmer amaranth; type: in vivo
Source text: as §1, with “Palmer amaranth seeds” for “Waterhemp seeds”, “seeds/plot were” for “seeds/plot was”, “toxicity assessment” for “toxicity assessment.”
as §2

[4] = system: various dicot weed species; experiment: Selectivity assessment, dicot weed species compared to bluegrass; type: in vivo; details: range over various weed species
Source text: as §1, with “Kentucky bluegrass” for “Waterhemp”, “purchased in a bag under” for “obtained from”, “commercial name of.” for “Department of Agronomy at Iowa State University.”, “10” for “Five”
as §2, with “A formulation control (with no active ingredient) was screened against a number of plants and factored into the final probit model. This formulation control had little-to-no effect by itself.” left out

corn seeds = experiment: Germination assay, corn seeds coated with compound; details: for inhibition of corn seed germination: seed coating 1% weight compound/weight seed, 3, 5, 7 days
Corn plants = experiment: Soil drench assay, corn plants; type: in vivo; parameters: key to phytotoxicity (qualitative), soil drench: NOE: No Observable Effect; XXX: Dead; -: the lowest phytotoxic effect; --: phytotoxicity that did not result in death; ---: phytotoxicity that did not result in death; ------: the highest; details: for phytotoxicity (qualitative), soil drench: Corn, 40 mL; for overall phytotoxicity to corn plants, soil drench: 0.5%-1% formulations
Method: Corn plants were planted under ½″ of potting soil and watered every 2-3 days as necessary. Plants were grown in potting plants (6″ wide×4.5″ deep) with approximately 800 mL of soil for each plant. Seeds germinated approximately 4-7 days after being planted. Plants were grown in a greenhouse under a constant temperature and light environment (25±5° C., 12 hr: 12 hr light: dark cycle). Plants were grown until reaching 1-2 weeks old and 3-4 weeks old; these plants served as the “young” and “old” plants in this study, respectively. Formulations of the various active ingredients were created using the monoterpenoid derivatives, potassium hydroxide, and Triton-X 100™ to aid in the solvation of the active ingredient. […] Formulations were applied to the soil next to the base of the stem of the plant to avoid foliar contact. Observations were performed 2 days and 3 weeks after soil drench to determine the effects of the treatments on the various types and stages of plants.

soybeans = experiment: Germination assay, soybeans coated with compound; type: in vivo, soybean; details: beans coated in 1% weight compound/weight bean
Source text: Soybeans were susceptible to Aphis glycines infestation and were not determined to be a biotype that was resistant to infestation, which could confide results. Germination typically occurred between 3-5 days after moistening.

Soybean plants [5] = experiment: Soil drench assay, soybean plants; type: in vivo; parameters: key to phytotoxicity (qualitative), soil drench: NOE: No Observable Effect; XXX: Dead; -: the lowest phytotoxic effect; --: phytotoxicity that did not result in death; ---: phytotoxicity that did not result in death; ------: the highest; details: for phytotoxicity (qualitative), soil drench: Soybean, 40 mL; for overall phytotoxicity to soybean plants, soil drench: 0.5%-1% formulations
Method: Soybean plants were planted under 1 cm of potting soil and watered every 2-3 days as necessary. Plants were grown in pots (6″ wide×4.5″ deep) with approximately 800 mL of soil for each plant. Seeds germinated approximately 3-5 days after being planted. Plants were grown in a greenhouse under a constant temperature and light environment (25±5° C., 12 hr: 12 hr light: dark cycle). Plants were grown until reaching 1-2 weeks old and 3-4 weeks old; these plants served as the “young” and “old” plants in this study, respectively.
Formulations of the various active ingredients were created using the monoterpenoid derivatives, potassium hydroxide, and Triton-X 100™ to aid in the solvation of the active ingredient. Formulations consisted of 0.5%-1% active ingredient by weight (0.5-1 g/100 ml water), with a 1:1 molar ratio of potassium hydroxide used to aid in the solvation (135-269 mg/100 mL for both thymyloxyacetic acid and carvacryloxyacetic acid). […] Formulations were applied to the soil next to the base of the stem of the plant to avoid foliar contact. Observations were performed 2 days and 3 weeks after soil drench to determine the effects of the treatments on the various types and stages of plants.

Soybean plants [6] = experiment: Soil drench assay, soybean plants; type: in vivo; parameters: key: NOE: No Observable Effect; XXX: Dead; -: the lowest phytotoxic effect; --: phytotoxicity that did not result in death; ---: phytotoxicity that did not result in death; ------: the highest; details: 3-weeks after treatment, Old Plants, 7%, 40 mL
[7] = 2-days after treatment, Old Plants, 0.50%
[8] = 2-days after treatment, Old Plants, 1%
[9] = 2-days after treatment, Young Plants, 0.50%
[10] = 2-days after treatment, Young Plants, 1%
[11] = 3-weeks after treatment, Old Plants, 0.50%
[12] = 3-weeks after treatment, Old Plants, 1%
[13] = 3-weeks after treatment, Young Plants, 0.50%
[14] = 3-weeks after treatment, Young Plants, 1%

Compound	inhibition of corn seed germination (corn seeds)	phytotoxicity (qualitative), soil drench (Corn plants; [7])	phytotoxicity (qualitative), soil drench (Corn plants; [8])	phytotoxicity (qualitative), soil drench (Corn plants; [9])	phytotoxicity (qualitative), soil drench (Corn plants; [10])	phytotoxicity (qualitative), soil drench (Corn plants; [11])	phytotoxicity (qualitative), soil drench (Corn plants; [12])	phytotoxicity (qualitative), soil drench (Corn plants; [13])	phytotoxicity (qualitative), soil drench (Corn plants; [14])	inhibition of soybean germination/growth (words) (soybeans)	phytotoxicity (qualitative), soil drench (Soybean plants [5]; [7])	phytotoxicity (qualitative), soil drench (Soybean plants [5]; [8])	phytotoxicity (qualitative), soil drench (Soybean plants [5]; [9])	phytotoxicity (qualitative), soil drench (Soybean plants [5]; [10])	phytotoxicity (qualitative), soil drench (Soybean plants [5]; [11])	phytotoxicity (qualitative), soil drench (Soybean plants [5]; [13])	phytotoxicity (qualitative), soil drench (Soybean plants [5]; [14])	phytotoxicity (qualitative), soil drench (Soybean plants [6])	overall phytotoxicity to corn plants, soil drench (Corn plants)	overall phytotoxicity to soybean plants, soil drench (Soybean plants [5])	further results
O=C(O)COc1ccc(Cl)cc1Cl [2,4-D, 2,4-dichlorophenoxyacetic acid]																					phytotoxic effect on wood sorrel, foliar spray (Wood sorrel): took much longer to die; phytotoxic effect on wood sorrel, foliar spray (Wood sorrel; listed as 2,4-dichloroacetic acid): plant death was not observed until much later; also recorded: uncontrolled growth and some chlorosis; LC50 Value ([1]; Waterhemp): 1800 ppm; Selective Toxicity Compared to Bluegrass ([1]; Waterhemp compared to bluegrass): 2.56; LC50 Value ([2]; Cocklebur): 770 ppm; Selective Toxicity Compared to Bluegrass ([2]; Cocklebur compared to bluegrass): 5.97; LC50 Value ([3]; Palmer Amaranth (Table 6)): 1300 ppm; Selective Toxicity Compared to Bluegrass ([3]; Palmer Amaranth compared to bluegrass): 3.54; LC50 Value ([3]; Palmer Amaranth, 2-week post application, probit): 465.04 ppm; LC50 Value ([3]; Palmer Amaranth, 3-day post application, probit): 1300 ppm; phytotoxicity compared with the other compound ([3]; Palmer amaranth, 95% confidence intervals overlapped): marginally more phytotoxic than thymyloxyacetic acid; LC50 at two weeks compared with three days after application (residual character in soil) ([3]; in vivo): significantly lower LC50 value; selectivity ratio compared to a blue grass species [4]: 2.56-5.97 fold
C=CCc1ccc(OCC(=O)OC)c(OC)c1 [eugenyloxyacetic acid methyl ester]	most capable of inhibiting the growth of corn seeds																				
C=CCc1ccc(OCC(=O)O)c(OC)c1 [eugenyloxyacetic acid, 2-(4-allyl-2-methoxyphenoxy)acetic acid]		NOE	-	NOE	NOE	-	--	-	--	prevented the growth of soybeans	-	-	-	--	XXX	-	XXX	-			corn seed germination at day 3 (corn seeds; seed coating, day 3): some level of germination
COC(=O)COc1cc(C)ccc1C(C)C [thymyloxyacetate methyl ester]		--	--	--	--	XXX	XXX	XXX	XXX		---		---		XXX	XXX	XXX	XXX	most phytotoxic to corn	significantly inhibited the growth of soybeans	
COc1cc(C(=O)O)ccc1OCC(=O)O [vanillic acid-oxyacetic acid, 4-(carboxymethoxy)-3-methoxybenzoic acid]	significantly inhibited by all compounds screened except for	NOE	NOE	NOE	NOE	NOE	NOE	NOE	NOE		NOE	NOE	NOE	NOE	NOE	NOE	NOE	NOE	did not produce significant phytotoxic symptoms	did not cause phytotoxic effects	
COc1cc(C=O)ccc1OCC(=O)O [vanillyloxyacetic acid, 2-(4-formyl-2-methoxyphenoxy)acetic acid]	significantly inhibited by all compounds screened except for	NOE	NOE	NOE	NOE	NOE	NOE	NOE	NOE	little to no inhibitory effect	NOE	NOE	NOE	NOE	NOE	NOE	NOE	NOE	did not produce significant phytotoxic symptoms	did not cause phytotoxic effects	inhibition of soybean germination/growth (words) (soybeans; listed as Vanillyloxyacetic acid): does not produce significant inhibition of plant growth
